Assay results from PMC6684654 (Nature Communications, 2019).
≈ marks a conversion by molar mass, not a printed value.

Key:
Assay in all cases: Antibiotic susceptibility (MIC), automated identification system
Assay type in all cases: cell-based
[1] = system: NDM-1 K. pneumoniae XJ155020; settings: Supplementary Table 2; for MIC: Klebsiella pneumoniae
From the text: (§1) Clinical isolate strains were identified and screened by the Phoenix 100 automated bacterial identification system to rapidly detect antimicrobial resistance. Total DNA was extracted by the TIANamp Bacteria DNA Kit according to the manufacturer’s protocol. The presence of blaNDM-1 was confirmed using a diagnostic kit for NDM-1 (Puruikang Bio Inc., Shenzhen, China) based on fluorescent quantitative polymerase chain reaction assay. According to the instruction, Ct values of less than 37 were considered positive.

NDM-1 E. coli XJ141026 = settings: Supplementary Table 1; for MIC: Escherichia coli
From the text: as §1

[2] = system: NDM-1 K. pneumoniae XJ155018; settings: Supplementary Table 2; for MIC: Klebsiella pneumoniae
From the text: as §1

[3] = system: NDM-1 K. pneumoniae XJ155019; settings: Supplementary Table 2; for MIC: Klebsiella pneumoniae
From the text: as §1

[4] = system: NDM-1 K. pneumoniae XJ155017; settings: Supplementary Table 2; for MIC: Klebsiella pneumoniae
From the text: as §1

E. coli ATCC25922 = settings: Supplementary Table 1; for MIC: Escherichia coli, ATCC25922
From the text: as §1

NDM-1 E. coli XJ141015 = settings: Supplementary Table 1; for MIC: Escherichia coli
From the text: as §1

NDM-1 E. coli XJ141047 = settings: Supplementary Table 1; for MIC: Escherichia coli
From the text: as §1

K. pneumoniae ATCC13883 = settings: Supplementary Table 2; for MIC: Klebsiella pneumoniae, ATCC13883
From the text: as §1

Compound | MIC [1] | susceptibility class (MIC) [1] | MIC (NDM-1 E. coli XJ141026) | susceptibility class (MIC) (NDM-1 E. coli XJ141026) | MIC [2] | susceptibility class (MIC) [2] | MIC [3] | susceptibility class (MIC) [3] | MIC [4] | susceptibility class (MIC) [4] | MIC (E. coli ATCC25922) | susceptibility class (MIC) (E. coli ATCC25922) | MIC (NDM-1 E. coli XJ141015) | susceptibility class (MIC) (NDM-1 E. coli XJ141015) | MIC (NDM-1 E. coli XJ141047) | susceptibility class (MIC) (NDM-1 E. coli XJ141047) | MIC (K. pneumoniae ATCC13883) | susceptibility class (MIC) (K. pneumoniae ATCC13883)
COc1c(N2C[C@@H]3CCCN[C@@H]3C2)c(F)cc2c(=O)c(C(=O)O)cn(C3CC3)c12 [Moxifloxacin] | > 4 µg/mL | R | > 4 µg/mL | R | > 4 µg/mL | R | > 4 µg/mL | R | > 4 µg/mL | R | ≤ 1 µg/mL | S | > 4 µg/mL | R | ≤ 1 µg/mL | S | ≤ 1 µg/mL | S
CN(C)[C@@H]1C(O)=C(C(N)=O)C(=O)[C@@]2(O)C(O)=C3C(=O)c4c(O)cccc4[C@@](C)(O)[C@H]3C[C@@H]12 [Tetracycline] | > 8 µg/mL | R | > 8 µg/mL | R | > 8 µg/mL | R | > 8 µg/mL | R | 4 µg/mL (≈ 9 µM) | S | ≤ 2 µg/mL | S | ≤ 2 µg/mL | S | ≤ 2 µg/mL | S | ≤ 2 µg/mL | S
C[C@H]1[C@H](NC(=O)/C(=N\OC(C)(C)C(=O)O)c2csc(N)n2)C(=O)N1S(=O)(=O)O [Aztreonam] | > 16 µg/mL | R | > 16 µg/mL | R | > 16 µg/mL | R | > 16 µg/mL | R | > 16 µg/mL | R | ≤ 2 µg/mL | S | > 16 µg/mL | R | > 16 µg/mL | R | ≤ 2 µg/mL | S

The remaining lines, values ahead:

MIC [1] | susceptibility class (MIC) [1] | MIC (NDM-1 E. coli XJ141026) | susceptibility class (MIC) (NDM-1 E. coli XJ141026) | MIC [2] | susceptibility class (MIC) [2] | MIC [3] | susceptibility class (MIC) [3] | MIC [4] | susceptibility class (MIC) [4] | MIC (E. coli ATCC25922) | susceptibility class (MIC) (E. coli ATCC25922) | MIC (NDM-1 E. coli XJ141015) | susceptibility class (MIC) (NDM-1 E. coli XJ141015) | MIC (NDM-1 E. coli XJ141047) | susceptibility class (MIC) (NDM-1 E. coli XJ141047) | MIC (K. pneumoniae ATCC13883) | susceptibility class (MIC) (K. pneumoniae ATCC13883) | Compound
> 16 µg/mL | R | ≤ 4 µg/mL | S | > 16 µg/mL | R | > 16 µg/mL | R | > 16 µg/mL | R | ≤ 4 µg/mL | S | > 16 µg/mL | R | ≤ 4 µg/mL | S | ≤ 4 µg/mL | S | O=C(N[C@H](CO)[C@H](O)c1ccc([N+](=O)[O-])cc1)C(Cl)Cl [Chloramphenicol]
> 16 µg/mL | R | > 16 µg/mL | R | > 16 µg/mL | R | > 16 µg/mL | R | > 16 µg/mL | R | ≤ 4 µg/mL | S | > 16 µg/mL | R | > 16 µg/mL | R | 16 µg/mL (≈ 45.8 µM) | R | CC1(C)S[C@@H]2[C@H](NC(=O)[C@H](N)c3ccccc3)C(=O)N2[C@H]1C(=O)O [Ampicillin]
